Series [1] in a line: Membrane permeability in Franz diffusion cell. The class given is in vitro ADME. Particulars: for Papp at 5 h: pH 7.4, PermeaPad barrier, read-out: permeability coefficient (Papp). The method, then:
Membrane permeability coefficients of the studied drugs were measured in the Franz diffusion cell of vertical type (PermeGear, Inc., Hellertown, PA, USA) with 7 mL/1 mL volumes of the donor and acceptor solutions through the reverse dialysis set up. The PermeaPad barrier (PHABIOC, Fritz-Souchon-Str.27 32339 Espelkamp Germany, www.innome.de) (0.785 cm^2 effective surface area) was mounted between the donor and acceptor chambers of the diffusion cell. The temperature was maintained at 310.2 ± 0.5 K throughout the experiment. Samples of 0.5 mL were withdrawn each 30 min from the acceptor solution and replaced with an equal amount of fresh buffer. Permeability experiments lasted over five hours in all cases. The solutions concentrations were analyzed via spectrophotometer (Spectramax 190; Molecular Devices Corporation, San Jose, CA, USA) in 96-well UV black plates (Costar) at a wavelength of 264 nm and 266 nm for IPN and INZ/iNAM, respectively. The dependences of the amount of the permeated drug over the surface area (dQ/A) on time (t) were plotted and flux (J) across the membrane was calculated by the equation:(11) J=dQ/A×dt The apparent permeability coefficients (Papp) were determined by normalizing the flux measured over the concentration of the drug in the donor compartment (C0) by the equation:(12) Papp=J/C0 Each permeability experiment was carried out in triplicate.
Similarly to the distribution, the permeability coefficients were obtained in the absence (for IPN, and iNAM) and in the presence of cyclodextrins (HP-β-CD and M-β-CD) (for IPN only) in the donor solution. The concentrations of cyclodextrins were 0.0115 M, 0.025 M and 0.035 M. The permeability coefficient for INZ through the PermeaPad barrier was determined in our previous investigation and taken in the present study for the sake of comparison.

Series [2] can be described thus: Thermodynamic functions of the hypothetical n-hexane → 1-octanol transferring. The class given is physicochemical. The method, then: The apparent dissolution Gibbs energies ( ΔGsol ) and entropies ( ΔSsol ) were calculated at a standard temperature of 298.2 K and 310.2 K:(4) ΔGsol298.2/310.2=−RT(lnX2298.2/310.2) (5) ΔGsol298.2/310.2=ΔHsol0−TΔSsol298.2/310.2 where R is the universal gas constant.
The following conclusions can be derived from Table 3. The dissolution process is more favorable in 1-octanol as compared to n-hexane. In both solvents it is determined by the enthalpy, but the difference between the enthalpy and entropy contributions is not essential (especially in 1-octanol). The greater positive enthalpy term is a driving force of the unfavorable dissolution processes in these two solvents. A more than two-fold difference ΔHsol > TΔSsol exists in n-hexane, and a favorable positive entropy value is not enough to overlap the enthalpy one. From the dissolution thermodynamic functions, the hypothetical transfer n-hexane→1-octanol simulating the blood-brain penetration can be disclosed. As follows from Table 3, the transferring is favorable (negative ΔGtr value), in that the lower temperature facilitates the process. The hypothetical transition from n-hexane to 1-octanol is driven and determined by the negative enthalpy (~80%). A small negative entropy contribution— TΔStr indicates some ordering of the system upon the movement of the IPN molecules from n-hexane to 1-octanol.

A short description of series [3]: Shake-flask distribution in the n-hexane/buffer pH 7.4 system. Type of series: physicochemical. The method, then:
Apparent distribution coefficients of the compounds were measured in two systems: 1-octanol/buffer pH 7.4 and n-hexane/buffer pH 7.4 by the shake-flask technique at 310.2 ± 0.5 K in the absence (for IPN, INZ and iNAM) and in the presence of cyclodextrins (HP-β-CD and M-β-CD) in the aqueous phase (for IPN only). The concentrations of cyclodextrins were: 0.0115 M, 0.025 M and 0.035 M. The experiments were carried out according to the literature. In brief, the following experimental procedure was performed. Aqueous buffer pH 7.4 and organic solvent (1-octanol or n-hexane) were mixed during 48 h to obtain mutually saturated phases. The stock solutions containing the drug were prepared in buffer pH 7.4 saturated with the organic solvent. Both aliquots of the aqueous stock solution and organic solvent were placed in screwed glass vials and mixed at 310.2 ± 0.5 K during 3 days. The concentrations of the stock solutions were approximately 6.0 × 10^−3 M for both systems. The volumes of the phases were 3:3 in the 1-octanol/buffer pH 7.4 systems and 6:3 and 10:3 in the n-hexane/buffer pH 7.4 systems, without and with cyclodextrins, respectively. After mixing, the equilibrium was achieved; the vials were maintained at 310.2 ± 0.5 K, and the phases were separated from each other. The drug concentrations were determined using spectrophotometer (Cary-50 Varian, Palo Alto, CA, USA, Software Version 3.00 (339)). The experiments were carried out at least four-fold with an accuracy of 2–4%. The distribution coefficients were calculated using the following equation:(6) DappOrg/buf=C2Org/buf⋅V^buf/Org/C2buf/Org⋅V^Org/buf where DappOrg/buf is the distribution coefficient calculated from the concentrations of the compounds expressed in molar scale, C2Org/buf and C2buf/Org are the molar concentrations of the drug in the mutually saturated organic solvent/buffer and buffer/organic solvent phases, respectively, and V^buf/Org and V^Org/buf are the volumes of the saturated buffer and organic solvent phases, respectively. In addition, the ΔlogD parameters were estimated taking into account the distribution coefficients both in the 1-octanol/buffer pH 7.4 and n-hexane/buffer H 7.4 systems. As Abraham et al. stated, the difference between the distribution parameters in these systems ( ΔlogD ) can be applied to assess the specific interactions including a hydrogen-bonding impact to the drug transport properties and can be calculated as follows:(7) ΔlogD=logDappoct/buf−logDapphex/buf

The values that follow come from publication PMC10224004, “Modulation of Distribution and Diffusion through the Lipophilic Membrane with Cyclodextrins Exemplified by a Model Pyridinecarboxamide Derivative” (Pharmaceutics, 2023).

Like-named read-outs stand apart in the source and are kept apart here. Where only a bound is given, the exact number is not on record here.

A word on the Papp: it is the rate of passage across a membrane or cell layer, normalised by area and donor concentration.

Take `CC(C)NNC(=O)c1ccncc1` [IPN, N′-isopropyl isonicotinic hydrazide]: the “steady penetrate rate - flux J∙10^4” value in series [1] (PermeaPad barrier, 310.2 K, pH 7.4, printed value = J × 10^4, cyclodextrin in donor solution as in the label) is reported as 1.25 ∙10^4 (μM∙cm‐2∙s‐1). Moreover, the “Papp∙10^5” value in series [1] (PermeaPad barrier, 310.2 K, pH 7.4, value = Papp × 10^5, cyclodextrin in donor solution as in the label) was 2.03±0.05 ∙10^5 (cm∙s‐1). In addition, the Papp at 5 h in series [1] (310.2 K, without cyclodextrins) was 20.3 ×10⁻⁶ cm/s; in series [1] (enhancement in the presence of M-β-CD in donor solution (highest value reached)), not above 28.7 ×10⁻⁶ cm/s; in series [1] (slight decrease upon growing HP-β-CD concentration in donor solution (lowest value reached)), not below 17.8 ×10⁻⁶ cm/s. Further, the TΔStr298.2 in series [2] (298.2 K) is -0.884 kcal/mol. In series [2] (298.2 K), this compound displayed a ΔGtr298.2 of -3.78 kcal/mol. In addition, the ζHtr is 84.1% in series [2] (298.2 K (first value of cell)) and 83.3% in series [2] (310.2 K (second value of cell)). In series [2] (298.2 K and 310.2 K), this compound gave a ΔHtr298.2/310.2 of -4.66 kcal/mol. The TΔStr310.2 in series [2] (310.2 K) was -0.932 kcal/mol. Moreover, the ΔGtr310.2 in series [2] (310.2 K) is -3.73 kcal/mol. For the same compound, the logDapphex/buff in series [3] (310.2 K, cyclodextrin in buffer phase as in the label) is given as −2.907. The “Dapphex/buff ·10^4” value in series [3] (310.2 K, value = D·10^4, cyclodextrin in buffer phase as in the label) is given as 12.400 ± 0.191 ·10^4. For the same compound, in series [3] (V(hex):V(buf)= 6:3 without and 10:3 with cyclodextrins, molar concentration × 10^3), the “Molar concentration C2 buf/hex ∙10^3 (aqueous phase)” value is given as 6.46 ∙10^3. For the same compound, the “Molar concentration C2 hex/buf ∙10^5 (organic phase)” value in series [3] (V(hex):V(buf)= 6:3 without and 10:3 with cyclodextrins, molar concentration × 10^5) was 1.60 ∙10^5.
